From ChEMBL document CHEMBL5291721, “A preclinical secondary pharmacology resource illuminates target-adverse drug reaction associations of marketed drugs” (Nat Commun, 2023)

Tests used:
[1] = biological target: T1, Muscarinic acetylcholine receptor M5 (Homo sapiens, UniProt P08912)
T1 sequence (P08912 whole entry): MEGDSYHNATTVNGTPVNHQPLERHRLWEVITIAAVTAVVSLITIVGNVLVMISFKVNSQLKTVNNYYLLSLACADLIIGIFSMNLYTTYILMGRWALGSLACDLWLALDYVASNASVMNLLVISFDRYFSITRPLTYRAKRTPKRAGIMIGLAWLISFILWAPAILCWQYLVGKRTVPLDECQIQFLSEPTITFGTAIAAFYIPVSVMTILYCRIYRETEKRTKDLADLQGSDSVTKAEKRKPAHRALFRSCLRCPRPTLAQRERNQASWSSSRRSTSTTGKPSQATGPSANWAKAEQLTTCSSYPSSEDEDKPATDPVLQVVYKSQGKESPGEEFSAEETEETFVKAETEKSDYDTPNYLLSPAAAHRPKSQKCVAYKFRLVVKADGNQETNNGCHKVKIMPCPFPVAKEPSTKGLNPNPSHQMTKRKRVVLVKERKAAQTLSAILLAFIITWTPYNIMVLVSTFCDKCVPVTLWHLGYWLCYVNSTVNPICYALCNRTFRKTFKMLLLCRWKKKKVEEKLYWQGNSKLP

[2] = biological target: Gamma-aminobutyric acid type B receptor subunit 1 (Homo sapiens, UniProt Q9UBS5)
[3] = biological target: 5-hydroxytryptamine receptor 6 (Homo sapiens, UniProt P50406)
[4] = biological target: 5-hydroxytryptamine receptor 7 (Homo sapiens, UniProt P34969)
[5] = biological target: Rod cGMP-specific 3',5'-cyclic phosphodiesterase subunit alpha (Homo sapiens, UniProt P16499); format: functional
[6] = biological target: Sodium channel protein type 5 subunit alpha (Homo sapiens, UniProt Q14524); format: functional, cell-based
[7] = biological target: T2, Muscarinic acetylcholine receptor M2 (Homo sapiens, UniProt P08172)
T2 sequence (P08172 whole entry): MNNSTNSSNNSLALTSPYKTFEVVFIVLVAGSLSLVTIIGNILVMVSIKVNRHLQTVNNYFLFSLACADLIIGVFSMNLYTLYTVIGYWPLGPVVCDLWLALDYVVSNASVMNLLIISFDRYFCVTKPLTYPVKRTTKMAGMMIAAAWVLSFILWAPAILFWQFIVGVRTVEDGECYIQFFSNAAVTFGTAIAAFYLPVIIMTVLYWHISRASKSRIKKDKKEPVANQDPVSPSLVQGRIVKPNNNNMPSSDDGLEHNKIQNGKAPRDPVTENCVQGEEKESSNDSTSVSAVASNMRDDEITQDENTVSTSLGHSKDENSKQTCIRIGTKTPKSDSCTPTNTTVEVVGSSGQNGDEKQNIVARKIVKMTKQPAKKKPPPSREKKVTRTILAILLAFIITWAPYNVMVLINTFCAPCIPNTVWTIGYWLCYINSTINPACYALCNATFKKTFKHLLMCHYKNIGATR

[8] = biological target: Voltage-dependent L-type calcium channel subunit alpha-1C (Homo sapiens, UniProt Q13936); format: functional, cell-based
[9] = biological target: Beta-1 adrenergic receptor (Homo sapiens, UniProt P08588); format: functional, cell-based
Histamine H1 receptor [10] = biological target: T3, Histamine H1 receptor (Homo sapiens, UniProt P35367); format: functional, cell-based
Histamine H1 receptor [11] = biological target: T3, Histamine H1 receptor; format: functional, cell-based; remark: listed apart in the source
Note: assay procedure not described here.

Sequence of 5-hydroxytryptamine receptor 7 (P34969 whole entry): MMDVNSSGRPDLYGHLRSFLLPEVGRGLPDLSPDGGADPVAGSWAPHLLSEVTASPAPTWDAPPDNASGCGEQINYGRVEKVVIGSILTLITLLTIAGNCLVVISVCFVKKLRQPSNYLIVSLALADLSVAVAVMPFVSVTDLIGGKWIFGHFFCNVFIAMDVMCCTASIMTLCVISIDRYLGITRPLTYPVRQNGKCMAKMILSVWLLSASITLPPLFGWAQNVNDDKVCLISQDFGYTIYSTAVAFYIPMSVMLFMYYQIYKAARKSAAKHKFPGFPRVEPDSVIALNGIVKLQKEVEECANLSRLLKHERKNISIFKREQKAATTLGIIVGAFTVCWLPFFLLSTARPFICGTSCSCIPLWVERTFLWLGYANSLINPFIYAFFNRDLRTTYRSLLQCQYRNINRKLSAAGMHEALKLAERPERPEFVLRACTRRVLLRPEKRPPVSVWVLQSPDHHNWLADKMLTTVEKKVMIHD
Sequence of Gamma-aminobutyric acid type B receptor subunit 1 (Q9UBS5 whole entry): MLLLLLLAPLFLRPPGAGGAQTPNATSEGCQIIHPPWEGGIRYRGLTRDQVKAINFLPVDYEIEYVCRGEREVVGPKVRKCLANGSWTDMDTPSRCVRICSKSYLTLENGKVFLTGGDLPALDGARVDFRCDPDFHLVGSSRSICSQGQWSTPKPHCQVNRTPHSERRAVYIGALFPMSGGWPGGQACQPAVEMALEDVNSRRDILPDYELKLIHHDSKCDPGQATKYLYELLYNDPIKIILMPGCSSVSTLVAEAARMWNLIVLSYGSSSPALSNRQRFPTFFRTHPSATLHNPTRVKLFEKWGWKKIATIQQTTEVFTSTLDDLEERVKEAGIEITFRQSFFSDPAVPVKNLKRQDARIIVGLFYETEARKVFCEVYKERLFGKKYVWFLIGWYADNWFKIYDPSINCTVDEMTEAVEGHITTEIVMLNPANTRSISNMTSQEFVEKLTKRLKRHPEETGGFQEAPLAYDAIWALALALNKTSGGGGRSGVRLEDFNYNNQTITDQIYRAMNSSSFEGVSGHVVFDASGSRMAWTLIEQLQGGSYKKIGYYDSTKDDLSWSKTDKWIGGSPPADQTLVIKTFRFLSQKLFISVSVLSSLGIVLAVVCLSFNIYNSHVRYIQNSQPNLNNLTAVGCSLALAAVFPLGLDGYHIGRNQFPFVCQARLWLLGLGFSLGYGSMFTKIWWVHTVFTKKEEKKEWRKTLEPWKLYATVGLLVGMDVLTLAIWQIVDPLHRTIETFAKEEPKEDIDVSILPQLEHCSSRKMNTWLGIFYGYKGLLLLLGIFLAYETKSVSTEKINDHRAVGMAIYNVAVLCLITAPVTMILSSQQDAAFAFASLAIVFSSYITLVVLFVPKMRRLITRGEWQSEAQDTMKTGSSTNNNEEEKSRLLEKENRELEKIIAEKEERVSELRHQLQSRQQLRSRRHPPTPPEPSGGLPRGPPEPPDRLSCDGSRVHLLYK
T3 sequence (P35367 whole entry): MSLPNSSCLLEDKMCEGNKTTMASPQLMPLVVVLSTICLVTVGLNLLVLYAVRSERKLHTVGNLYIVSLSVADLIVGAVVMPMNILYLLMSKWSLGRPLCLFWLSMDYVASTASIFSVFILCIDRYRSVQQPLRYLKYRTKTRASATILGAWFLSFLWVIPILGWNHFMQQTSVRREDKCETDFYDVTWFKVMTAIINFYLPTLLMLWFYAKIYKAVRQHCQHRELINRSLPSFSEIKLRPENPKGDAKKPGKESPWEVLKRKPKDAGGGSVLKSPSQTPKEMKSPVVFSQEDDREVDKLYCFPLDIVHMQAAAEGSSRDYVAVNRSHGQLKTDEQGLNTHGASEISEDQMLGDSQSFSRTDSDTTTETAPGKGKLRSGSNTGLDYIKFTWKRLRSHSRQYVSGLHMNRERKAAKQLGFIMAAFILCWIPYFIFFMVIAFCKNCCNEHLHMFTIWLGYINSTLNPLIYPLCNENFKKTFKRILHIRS
Sequence of Rod cGMP-specific 3',5'-cyclic phosphodiesterase subunit alpha (P16499 whole entry): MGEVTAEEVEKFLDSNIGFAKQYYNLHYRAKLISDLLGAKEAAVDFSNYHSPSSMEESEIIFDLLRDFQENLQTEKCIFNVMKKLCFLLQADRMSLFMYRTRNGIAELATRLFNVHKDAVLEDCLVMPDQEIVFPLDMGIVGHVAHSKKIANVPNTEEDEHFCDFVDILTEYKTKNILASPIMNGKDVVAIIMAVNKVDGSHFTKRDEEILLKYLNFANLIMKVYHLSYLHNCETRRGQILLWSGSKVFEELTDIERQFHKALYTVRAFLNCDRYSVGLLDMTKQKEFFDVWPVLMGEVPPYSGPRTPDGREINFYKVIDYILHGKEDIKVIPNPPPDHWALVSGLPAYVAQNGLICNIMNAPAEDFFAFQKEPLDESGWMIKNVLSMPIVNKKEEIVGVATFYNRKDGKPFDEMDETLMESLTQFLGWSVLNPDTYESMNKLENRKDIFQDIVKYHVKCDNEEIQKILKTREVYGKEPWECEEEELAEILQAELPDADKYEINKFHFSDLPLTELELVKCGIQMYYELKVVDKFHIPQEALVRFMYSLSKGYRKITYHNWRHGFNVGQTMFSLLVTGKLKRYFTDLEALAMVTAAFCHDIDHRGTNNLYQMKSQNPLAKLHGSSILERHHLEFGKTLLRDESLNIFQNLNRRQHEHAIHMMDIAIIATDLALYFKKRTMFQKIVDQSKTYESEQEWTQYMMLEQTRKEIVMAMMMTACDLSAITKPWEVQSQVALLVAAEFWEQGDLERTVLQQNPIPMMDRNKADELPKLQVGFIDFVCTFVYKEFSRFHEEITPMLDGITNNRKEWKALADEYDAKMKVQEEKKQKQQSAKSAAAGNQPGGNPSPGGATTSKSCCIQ
Sequence of 5-hydroxytryptamine receptor 6 (P50406 whole entry): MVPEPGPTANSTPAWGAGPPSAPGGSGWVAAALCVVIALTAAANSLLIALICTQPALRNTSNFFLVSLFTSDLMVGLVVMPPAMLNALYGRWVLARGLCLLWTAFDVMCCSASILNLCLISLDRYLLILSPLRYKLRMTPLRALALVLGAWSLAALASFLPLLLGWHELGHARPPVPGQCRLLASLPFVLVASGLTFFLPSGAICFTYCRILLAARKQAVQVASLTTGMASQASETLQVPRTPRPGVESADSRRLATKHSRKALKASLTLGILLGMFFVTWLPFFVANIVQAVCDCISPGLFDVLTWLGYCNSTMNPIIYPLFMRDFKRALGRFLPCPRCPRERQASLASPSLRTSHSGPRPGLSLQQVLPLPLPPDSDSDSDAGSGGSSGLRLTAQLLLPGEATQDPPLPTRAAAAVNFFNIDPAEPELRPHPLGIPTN
Sequence of Beta-1 adrenergic receptor (P08588 whole entry): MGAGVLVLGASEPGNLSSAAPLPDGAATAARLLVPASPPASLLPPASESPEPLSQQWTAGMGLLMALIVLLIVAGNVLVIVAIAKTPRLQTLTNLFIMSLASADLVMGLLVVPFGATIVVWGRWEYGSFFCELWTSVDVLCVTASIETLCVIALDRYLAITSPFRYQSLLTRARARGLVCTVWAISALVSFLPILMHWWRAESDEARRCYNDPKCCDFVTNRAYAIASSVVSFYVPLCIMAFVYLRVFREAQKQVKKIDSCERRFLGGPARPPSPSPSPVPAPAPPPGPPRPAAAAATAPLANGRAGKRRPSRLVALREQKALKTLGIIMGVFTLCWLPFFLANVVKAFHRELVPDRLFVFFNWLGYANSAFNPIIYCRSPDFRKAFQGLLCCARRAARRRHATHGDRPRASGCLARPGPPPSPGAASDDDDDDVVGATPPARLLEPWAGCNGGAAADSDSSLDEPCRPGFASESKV

O=C(Nc1nc(-c2cc(Cl)cs2)c(N2CCN(C3CCCCC3)CC2)s1)c1cnc(N2CCC(C(=O)O)CC2)c(Cl)c1 [AVATROMBOPAG]
AC50 [1]: > 10 µM | AC50 [2]: > 10 µM | AC50 [3]: > 10 µM | AC50 [4]: > 10 µM | AC50 [5]: > 10 µM

COc1ccc2c(c1)[C@]13CCCC[C@@H]1[C@H](C2)N(C)CC3 [DEXTROMETHORPHAN]
AC50 [6]: > 30 µM

OC(CCCN1CCCCC1)(c1ccccc1)c1ccccc1 [DIPHENIDOL]
AC50 [7]: 0.38 µM

O=C(CCCN1CC=C(n2c(=O)[nH]c3ccccc32)CC1)c1ccc(F)cc1 [DROPERIDOL]
AC50 [8]: > 50 µM | AC50 [6]: 49 µM

CCn1cc(C(=O)O)c(=O)c2cc(F)c(N3CCNCC3)nc21 [ENOXACIN]
AC50 [1]: > 10 µM | AC50 [2]: > 10 µM | AC50 [3]: > 10 µM | AC50 [4]: > 10 µM | AC50 [5]: > 10 µM

CNC(=O)Oc1ccc2c(c1)[C@]1(C)CCN(C)[C@@H]1N2C [PHYSOSTIGMINE]
AC50 [9]: > 30 µM

O=C(CCCN1CCC2(CC1)C(=O)NCN2c1ccccc1)c1ccc(F)cc1 [SPIPERONE]
AC50 (Histamine H1 receptor [10]): 7.1 µM | AC50 (Histamine H1 receptor [11]): 1.2 µM
